“Also recorded” adds a separate entry of the source. Where no end group is shown, it is not given here. [ ]: non-standard residue; d: D form. Lys(Me3) = C[N+](C)(C)CCCC[C@H](N)C(=O)O

The first assay relates to KDM4A-E. Nature of the assay: Demethylase activity of KDM4 subfamily on peptide substrates (MALDI-TOF MS), result worded for KDM4A-E together. The class given is biochemical, human. Particulars: wild-type KDM4A-E, 10 µM enzyme, 10 µM peptide, 1 mM 2OG, 50 mM Tris pH 8, 37°C, three hours.
Regarding “AEVTRTAR[Lys(Me3)]QSAQKRVL [compound 16, Nup107-K25me3 peptide]”, the “demethylation by KDM4A-E” value is given as “demethylated by multiple KDM4s; also recorded: robust demethylation”.

“ALMLENLQ[Lys(Me3)]HSTPHAAF [compound 9, ACINUS-K113me3 peptide]”: the “demethylation by KDM4A-E” value is “failed to undergo demethylation by KDM4A-E”.

Regarding “FNRMPIAR[Lys(Me3)]IIKDGEQH [compound 8, AIFM1-K590me3 peptide]”, the “demethylation by KDM4A-E” value is on record as “failed to undergo demethylation; also recorded: not recognized as KDM4 substrates”.

On to “GGATSSAR[Lys(Me3)]NRWDEPTK [compound 12, SF3B1-K290me3 peptide]”, for which the “demethylation by KDM4A-E” value is listed as “failed to undergo demethylation; also recorded: not recognized as KDM4 substrates”.

With “KGPDEAKI[Lys(Me3)]ALLERTGY [compound 11, hnRNPQ-K125me3 peptide]”, the “demethylation by KDM4A-E” value is reported as “failed to undergo demethylation by KDM4A-E; also recorded: not recognized as KDM4 substrates”.

For the substance “MPSASASR[Lys(Me3)]SQEKPREI [compound 14, SYDC-K9me3 peptide]”, the “demethylation by KDM4A-E” value is given as “not recognized as KDM4 substrates”.

As for “RSASSNSR[Lys(Me3)]SLSPGVSR [compound 10, Acinus-K654me3 peptide]”, the “demethylation by KDM4A-E” value is “demethylated by multiple KDM4s; also recorded: robust demethylation”.

Turning to “SRAHSSHLKme3SKKGQSTS [compound 18, P53-K370me3 peptide]”, the “demethylation by KDM4A-E” value is “failed to undergo demethylation by KDM4A-E”.

With “WENTLHTL[Lys(Me3)]QRQLTSYV [compound 17, NUP107-K305me3 peptide]”, the “demethylation by KDM4A-E” value is given as “failed to undergo demethylation by KDM4A-E”.

The test system of another assay is KDM4A-I71AzF. As to the kind of experiment: CASI: photo-crosslinking with HEK293T cell extracts, StrepTactin enrichment and LC-MS/MS proteomics.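 Also: lysates from HEK293T cells pretreated with a KDM4 inhibitor to raise proteome methylation, affinity-purified after ±UV, gel-resolved, trypsin-digested, with exclusive unique peptides per protein averaged per condition.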 Particulars: sheet "Final results but with 0.01". It counts as binding, human.
On to ATPB_HUMAN, for which the “Fold change (+UV/-UV)” value amounted to 0.5789.

Turning to BRE1A_HUMAN, the “Fold change (+UV/-UV)” value was 0.1667.

As to BRE1B_HUMAN, the “Fold change (+UV/-UV)” value is listed as 0.25.

Take CCAR2_HUMAN: the “Fold change (+UV/-UV)” value is reported as 0.75.

Take CHD4_HUMAN: the “Fold change (+UV/-UV)” value is 0.3333.

With CLH1_HUMAN, the “Fold change (+UV/-UV)” value is reported as 1.

For CLPX_HUMAN, the “Fold change (+UV/-UV)” value turned out to be 1.5.

For CMC2_HUMAN, the “Fold change (+UV/-UV)” value is 0.5.

For the substance COR1C_HUMAN, the “Fold change (+UV/-UV)” value was determined as 0.

DESP_HUMAN: the “Fold change (+UV/-UV)” value turned out to be 0.2222.

In the case of DHE3_HUMAN, the “Fold change (+UV/-UV)” value is recorded as 1.727.

In the case of DHSA_HUMAN, the “Fold change (+UV/-UV)” value came out at 1.

Turning to DHX9_HUMAN, the “Fold change (+UV/-UV)” value is reported as 0.7895.

As for DNMT1_HUMAN, the “Fold change (+UV/-UV)” value is 0.

For the substance DOCK7_HUMAN, the “Fold change (+UV/-UV)” value was 0.8.

In the case of ECHA_HUMAN, the “Fold change (+UV/-UV)” value stood at 1.

Turning to ENPL_HUMAN, the “Fold change (+UV/-UV)” value is given as 1.25.

On to ESYT1_HUMAN, for which the “Fold change (+UV/-UV)” value came out at 1.

On to FAS_HUMAN, for which the “Fold change (+UV/-UV)” value was found to be 0.3889.

FILA2_HUMAN: the “Fold change (+UV/-UV)” value is 0.75.

For FLNA_HUMAN, the “Fold change (+UV/-UV)” value turned out to be 0.3571.

Regarding FTO_HUMAN, the “Fold change (+UV/-UV)” value is recorded as 1.

Take G3BP1_HUMAN: the “Fold change (+UV/-UV)” value is 0.

Turning to G3P_HUMAN, the “Fold change (+UV/-UV)” value was found to be 0.5.

Take GRP75_HUMAN: the “Fold change (+UV/-UV)” value turned out to be 0.7931.

In the case of GRP78_HUMAN, the “Fold change (+UV/-UV)” value was found to be 0.5556.

As to GUAA_HUMAN, the “Fold change (+UV/-UV)” value is reported as 0.6364.

In the case of H12_HUMAN, the “Fold change (+UV/-UV)” value is 700.

For HEAT1_HUMAN, the “Fold change (+UV/-UV)” value is 0.

Regarding HNRPK_HUMAN, the “Fold change (+UV/-UV)” value amounted to 1.273.

For the substance HNRPU_HUMAN, the “Fold change (+UV/-UV)” value came to 0.6.

Regarding HORN_HUMAN, the “Fold change (+UV/-UV)” value is recorded as 0.

For the substance HS90B_HUMAN, the “Fold change (+UV/-UV)” value stood at 0.75.

For HSP7C_HUMAN, the “Fold change (+UV/-UV)” value was 0.7407.

As to HSP71_HUMAN, the “Fold change (+UV/-UV)” value stood at 0.6154.

With I2BP2_HUMAN, the “Fold change (+UV/-UV)” value was 0.3333.

On to IF4A1_HUMAN, for which the “Fold change (+UV/-UV)” value was determined as 200.

IF4G1_HUMAN: the “Fold change (+UV/-UV)” value is listed as 0.

INT3_HUMAN: the “Fold change (+UV/-UV)” value is 2.

Turning to K2C4_HUMAN, the “Fold change (+UV/-UV)” value came out at 10.

KCRU_HUMAN: the “Fold change (+UV/-UV)” value came out at 200.

As to KPYM_HUMAN, the “Fold change (+UV/-UV)” value is listed as 1.667.

In the case of KRT82_HUMAN, the “Fold change (+UV/-UV)” value is recorded as 200.

As to LAMP2_HUMAN, the “Fold change (+UV/-UV)” value is 2.

Take MAOM_HUMAN: the “Fold change (+UV/-UV)” value came to 1.714.

For MCM7_HUMAN, the “Fold change (+UV/-UV)” value was 0.3333.

Regarding MPRI_HUMAN, the “Fold change (+UV/-UV)” value is 0.

With MSH6_HUMAN, the “Fold change (+UV/-UV)” value was determined as 0.5.

On to MYH9_HUMAN, for which the “Fold change (+UV/-UV)” value is listed as 0.

For the substance NU205_HUMAN, the “Fold change (+UV/-UV)” value was determined as 0.6667.

Regarding NU214_HUMAN, the “Fold change (+UV/-UV)” value worked out at 2.

On to NUMA1_HUMAN, for which the “Fold change (+UV/-UV)” value stood at 0.

For the substance PABP1_HUMAN, the “Fold change (+UV/-UV)” value was 0.8571.

PO210_HUMAN: the “Fold change (+UV/-UV)” value was 0.1538.

As to PRKDC_HUMAN, the “Fold change (+UV/-UV)” value turned out to be 0.5.

As to PRP8_HUMAN, the “Fold change (+UV/-UV)” value stood at 0.32.

PTBP1_HUMAN: the “Fold change (+UV/-UV)” value turned out to be 1.2.

PYR1_HUMAN: the “Fold change (+UV/-UV)” value is reported as 0.125.

As to RBM25_HUMAN, the “Fold change (+UV/-UV)” value came out at 0.

On to RBP56_HUMAN, for which the “Fold change (+UV/-UV)” value was 1.

As for RIF1_HUMAN, the “Fold change (+UV/-UV)” value was 1.

On to RRP5_HUMAN, for which the “Fold change (+UV/-UV)” value is on record as 0.

For the substance RU17_HUMAN, the “Fold change (+UV/-UV)” value was determined as 1.

In the case of SCRIB_HUMAN, the “Fold change (+UV/-UV)” value is listed as 3.

On to SMCA5_HUMAN, for which the “Fold change (+UV/-UV)” value was found to be 0.

For SP16H_HUMAN, the “Fold change (+UV/-UV)” value was 0.2857.

As to SPTN1_HUMAN, the “Fold change (+UV/-UV)” value is 0.

On to SSRP1_HUMAN, for which the “Fold change (+UV/-UV)” value is 0.

For the substance SYEP_HUMAN, the “Fold change (+UV/-UV)” value was 0.6667.

Consider SYNM_HUMAN, for which the “Fold change (+UV/-UV)” value is listed as 1.

TBA1B_HUMAN: the “Fold change (+UV/-UV)” value amounted to 0.8182.

With TCPA_HUMAN, the “Fold change (+UV/-UV)” value is listed as 2.

Consider TCPE_HUMAN, for which the “Fold change (+UV/-UV)” value came to 0.3333.

Consider TCPG_HUMAN, for which the “Fold change (+UV/-UV)” value turned out to be 4.

As for TCPH_HUMAN, the “Fold change (+UV/-UV)” value worked out at 1.333.

In the case of TCPZ_HUMAN, the “Fold change (+UV/-UV)” value stood at 1.

In the case of TERA_HUMAN, the “Fold change (+UV/-UV)” value is recorded as 1.125.

For the substance TLN1_HUMAN, the “Fold change (+UV/-UV)” value came out at 0.

Turning to TPR_HUMAN, the “Fold change (+UV/-UV)” value amounted to 0.6212.

In the case of U5S1_HUMAN, the “Fold change (+UV/-UV)” value is reported as 0.6.

On to U520_HUMAN, for which the “Fold change (+UV/-UV)” value was found to be 0.6129.

Turning to UGGG1_HUMAN, the “Fold change (+UV/-UV)” value came to 1.

On to VIME_HUMAN, for which the “Fold change (+UV/-UV)” value is given as 0.875.

For XRCC5_HUMAN, the “Fold change (+UV/-UV)” value is 0.5.

Regarding XRCC6_HUMAN, the “Fold change (+UV/-UV)” value was determined as 0.3333.

Consider YLPM1_HUMAN, for which the “Fold change (+UV/-UV)” value is reported as 0.6923.

For the substance ZN207_HUMAN, the “Fold change (+UV/-UV)” value was 1.

For the substance ZO1_HUMAN, the “Fold change (+UV/-UV)” value is 1.

These data come from article PMC10540216, “Activity Guided Azide-methyllysine Photo-trapping for Substrate Profiling of Lysine Demethylases” (Journal of the American Chemical Society, 2023).
